Experimental data from US20060040254A1, “Method for identifying bronchoconstriction relaxing substances” (priority 2004, published 2006).

How the values were obtained:
[1] = test system: human isolated airway preparations (bronchus) contracted with LTD4; experiment: LTD4-induced contraction of isolated human bronchus preparation (force transducer), remaining contraction after exposure to test substance; settings: for effectiveness in relaxing broncho-constriction in comparison to capsazepine: LTD4 as broncho-contracting agent, test system of Example 1
Method: Dissection and mounting of lung tissue preparations. Lung tissue was obtained from patients undergoing lobectomia or pulmectomia due to lung carcinoma. The tissue was placed in a dissection chamber continuously perfused with 10 ml min^−1 of a physiological saline solution (PSS) at room temperature. An airway was identified in the cut part of the lobe, and a bronchus of 10-20 mm length and 1-2 mm diameter was obtained. The bronchus was cut into rings of a width of about 2-3 mm. Each bronchial ring was cleaved to obtain an about rectangular oblong preparation, one end of which was tied to a small steel hook connected to a force transducer, while the other end of the preparation was attached to a fixed hook. This is followed by a period of adjustment, as described below. The preparation was mounted in an atmosphere containing […] and 6% of CO2.
Experimental chamber. The experimental chamber has a a volume of 5 ml. It is perfused with PSS at a rate of 3 ml min^−1. Two preparations are mounted in the chamber, and measurements on them are performed in parallel. For mechanical tensioning each force transducer (AME 801, SensoNor A/S, Horten, Norway) is connected to a micrometer screw. The substances to be tested, the reference substance (capsazepine), and transmitter (LTD4) are injected upstream of the preparation(s).
Materials. PPS (physiological saline solution, in mM): NaCl, 117; KCl, 4.87; MgSO4, 0.60; NaHCO3, 25.0; CaCl2, 1.60; glucose, 5.23. The solution is saturated with a mixture of 94% oxygen and 6% carbon dioxide, giving a pH of 7.40±0.05 in the experimental chamber. All substances are prepared as stock solution dissolved in the vehicles ethanol or DMSO. Leukotriene D4 (LTD4; Keyman Ltd.): 10 μl of a 100 μM ethanol stock solution. Capsazepine (Sigma Aldrich): 10 μl of a 0.1 M ethanol stock solution. Substance to be tested: 10-100 μl of a 0.01-0.1 M ethanol or DMSO stock solution. Solution for establishing the passive tension level: calcium-free PSS+2 mM EGTA+20 mM caffeine. To exclude effects by the test substance vehicle, ethanol or DMSO, respectively, were added during the entire experiment except during the presence of test substance.
An exemplary test is shown in FIG. 1 in which capital letters indicate interference with the test system. The material for the preparation was a bronchus (inner diameter about 1 mm) from a occasional smoker but with the epithelium intact. Adjustment and stretch. After mounting as described above the preparation is allowed to adjust with a low passive tone in the experimental chamber. The composition of the gas is changed to 94% (v/v) of oxygen. After a short adjustment period, PSS with 10 nM LTD4 is added to the experimental chamber upstream of the preparation (A). The preparation is stretched repeatedly (B) until it exerts a contraction force of around 150 mg. When the contraction has levelled off, leukotriene-free solution is administered for 1 hour (C), resulting in a relaxation. A second injection of 10 nM LTD4 (D) makes the preparation return to the tensioned state. At the peak tension leukotriene-free solution is again administered (E). After a third injection of 10 nM LTD4 (F) the preparation returns to the tensioned state. At the peak, PSS with 10 μM capsazepine (G) is added, resulting in a relaxation. After 1 h exposure to capsazepine, LTD4 is added, resulting in a contraction (H). In comparison with the control LTD4 contraction (F), a substantially weaker contraction is now observed (H). […]

small human bronchi = experiment: Relaxation of small human bronchi, with and without 2-APB pre-treatment
Source text: More recent studies have lead to the belief that they instead block the TRPC receptor.

VR1 = VR1 (Rattus norvegicus, UniProt O35433); settings: capsaicin-induced effects in rodents; cited from earlier work
Sequence of VR1 (O35433 whole entry): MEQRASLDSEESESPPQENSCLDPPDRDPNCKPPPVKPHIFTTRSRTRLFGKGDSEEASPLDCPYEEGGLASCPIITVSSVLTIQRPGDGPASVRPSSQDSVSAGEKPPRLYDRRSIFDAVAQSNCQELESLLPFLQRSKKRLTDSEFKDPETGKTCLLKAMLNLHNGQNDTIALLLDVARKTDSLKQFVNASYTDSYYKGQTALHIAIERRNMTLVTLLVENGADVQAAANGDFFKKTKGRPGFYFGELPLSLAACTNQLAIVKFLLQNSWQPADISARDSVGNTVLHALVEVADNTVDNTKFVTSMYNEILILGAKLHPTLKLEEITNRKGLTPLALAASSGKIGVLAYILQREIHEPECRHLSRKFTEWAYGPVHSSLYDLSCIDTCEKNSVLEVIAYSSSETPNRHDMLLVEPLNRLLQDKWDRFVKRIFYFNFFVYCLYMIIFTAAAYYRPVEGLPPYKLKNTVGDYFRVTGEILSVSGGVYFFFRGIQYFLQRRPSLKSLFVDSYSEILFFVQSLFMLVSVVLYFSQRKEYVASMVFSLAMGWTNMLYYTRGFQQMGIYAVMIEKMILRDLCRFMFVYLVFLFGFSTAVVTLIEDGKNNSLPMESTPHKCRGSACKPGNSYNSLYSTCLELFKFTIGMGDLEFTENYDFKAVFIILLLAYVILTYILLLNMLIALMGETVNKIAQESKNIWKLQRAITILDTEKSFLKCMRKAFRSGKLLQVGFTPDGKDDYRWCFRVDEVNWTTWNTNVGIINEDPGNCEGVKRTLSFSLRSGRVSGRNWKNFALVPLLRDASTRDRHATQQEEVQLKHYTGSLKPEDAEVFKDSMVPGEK

[2] = test system: guinea pig airway preparations; settings: cited from earlier work

Oc1cc2c(cc1O)CN(C(=S)NCCc1ccc(Cl)cc1)CCC2 [capsazepine]
remaining contraction (test force) relative to that caused by the control force ([1]; 10 μM capsazepine, 1 h exposure, 10 nM LTD4, bronchus from occasional smoker): about 55%

NCCOB(c1ccccc1)c1ccccc1 [2-APB, 2-amino-ethoxydiphenylborate]
relaxation of small human bronchi (small human bronchi): relaxes small human bronchi

C=C(C)[C@]12C[C@@H](C)[C@@]34O[C@](Cc5ccccc5)(O[C@@H]1[C@@H]3C=C(COC(=O)Cc1cc(I)c(O)c(OC)c1)C[C@]1(O)C(=O)C(C)=C[C@@H]41)O2 [I-RTX, iodo-resiniferatoxin]
inhibition of leukotriene-induced bronchoconstriction ([1]; human bronchial preparations, found by the present inventors): did not inhibit | VR1 antagonist potency relative to capsazepine (VR1): at least 40 times | potency of inhibition of capsaicin-induced bronchoconstriction relative to capsazepine [2]: 10-30 times

Oc1cc2c(cc1O)CN(C(=S)NCCc1ccccc1)CCC2 [RES 1-83]
effectiveness in relaxing broncho-constriction in comparison to capsazepine [1]: substantially less effective

Oc1c(Cl)cc2c(c1Cl)CCCN(C(=S)NCCc1ccc(Cl)cc1)C2 [RES 5-21]
effectiveness in relaxing broncho-constriction in comparison to capsazepine [1]: substantially more effective

Oc1cc2c(cc1O)CN(C(=S)NCc1ccc(C(F)(F)F)cc1)CCC2 [RES 3-22]
effectiveness in relaxing broncho-constriction in comparison to capsazepine [1]: about equally effective

Cn1c(=O)c2[nH]cnc2n(C)c1=O [theophylline]
relaxation after pre-treatment of small human bronchi with 2-APB (small human bronchi; pre-treatment with 2-APB): not reduced
